# Legend:
# [1] = tested on: Enterococcus faecium; experiment: Antibacterial activity against linezolid-resistant Enterococcus faecium after 16 hrs by agar dilution method; assay type: functional
# [2] = tested on: Staphylococcus epidermidis; experiment: Antibacterial activity against linezolid-resistant Staphylococcus epidermidis after 16 hrs by agar dilution method; assay type: functional
# [3] = tested on: Enterococcus faecalis; experiment: Antibacterial activity against linezolid-resistant Enterococcus faecalis after 16 hrs by agar dilution method; assay type: functional
# [4] = tested on: Enterococcus faecalis; experiment: Antibacterial activity against Enterococcus faecalis after 16 hrs by agar dilution method; assay type: functional
# [5] = tested on: Staphylococcus epidermidis; experiment: Antibacterial activity against methicillin-resistant Staphylococcus epidermidis after 16 hrs by agar dilution method; assay type: functional
# [6] = tested on: Staphylococcus aureus; experiment: Antibacterial activity against Staphylococcus aureus ATCC 29213 after 16 hrs by agar dilution method; assay type: functional; conditions: ATCC 29213, 16 h
# [7] = tested on: Streptococcus pneumoniae; experiment: Antibacterial activity against penicillin-resistant Streptococcus pneumoniae after 16 hrs by agar dilution method; assay type: functional
# [8] = tested on: Staphylococcus aureus; experiment: Antibacterial activity against methicillin-resistant Staphylococcus aureus after 16 hrs by agar dilution method; assay type: functional
# [9] = tested on: Staphylococcus aureus; experiment: Antibacterial activity against linezolid-resistant Staphylococcus aureus after 16 hrs by agar dilution method; assay type: functional
# [10] = tested on: Staphylococcus aureus; experiment: Antibacterial activity against Linezolid-resistant Staphylococcus aureus after 16 hrs by agar dilution method relative to Linezolid; assay type: functional
# [11] = tested on: Enterococcus faecium; experiment: Antibacterial activity against Linezolid-resistant Enterococcus faecium after 16 hrs by agar dilution method relative to Linezolid; assay type: functional
# [12] = tested on: Enterococcus faecalis; experiment: Antibacterial activity against Linezolid-resistant Enterococcus faecalis after 16 hrs by agar dilution method relative to Linezolid; assay type: functional
# [13] = tested on: Staphylococcus aureus; experiment: Antibacterial activity against Staphylococcus aureus ATCC 19636 infected in mouse systemic infection model administered orally 1 hour after infection measured 48 hrs of post-treatment; assay type: functional; conditions: ATCC 19636, po
# [14] = tested on: Staphylococcus epidermidis; experiment: Antibacterial activity against Linezolid-resistant Staphylococcus epidermidis after 16 hrs by agar dilution method relative to Linezolid; assay type: functional
# [15] = Oral bioavailability in Sprague-Dawley rat at 50 mg/kg by LC-MS analysis; assay type: ADME, organism-based; conditions: in vivo
# [16] = tested on: Staphylococcus aureus; experiment: Antibacterial activity against methicillin-resistant Staphylococcus aureus ATCC 33591 infected in NSA mouse neutropenic model administered orally 1 hour after infection measured 48 hrs post-treatment; assay type: functional; conditions: ATCC 33591, po
# [17] = Half life in Sprague-Dawley rat at 50 mg/kg, po by LC-MS analysis; assay type: ADME, organism-based; set-up: dose 50 mg/kg, route oral; conditions: in vivo
# [18] = tested on: Staphylococcus epidermidis; experiment: Antibacterial activity against methicillin-resistant Staphylococcus epidermidis after 16 hrs by agar dilution method relative to Linezolid; assay type: functional
# [19] = AUC (0 to infinity) in Sprague-Dawley rat at 50 mg/kg, po by LC-MS analysis; assay type: ADME, organism-based; set-up: time infinity, dose 50 mg/kg, route oral; conditions: plasma
# [20] = Tmax in Sprague-Dawley rat at 50 mg/kg, po by LC-MS analysis; assay type: ADME, organism-based; set-up: dose 50 mg/kg, route oral; conditions: in vivo
# [21] = AUC (0 to infinity) in Sprague-Dawley rat at 10 mg/kg, iv by LC-MS analysis; assay type: ADME, organism-based; set-up: time infinity, dose 10 mg/kg, route intravenous; conditions: plasma
# [22] = tested on: Streptococcus pneumoniae; experiment: Antibacterial activity against penicillin-resistant Streptococcus pneumoniae after 16 hrs by agar dilution method relative to Linezolid; assay type: functional
# [23] = tested on: Staphylococcus aureus; experiment: Antibacterial activity against Staphylococcus aureus ATCC 29213 after 16 hrs by agar dilution method relative to Linezolid; assay type: functional
# [24] = Cmax in Sprague-Dawley rat at 50 mg/kg, po by LC-MS analysis; assay type: ADME, organism-based; set-up: dose 50 mg/kg, route oral; conditions: in vivo
# [25] = tested on: Enterococcus faecalis; experiment: Antibacterial activity against Enterococcus faecalis after 16 hrs by agar dilution method relative to Linezolid; assay type: functional
# [26] = Half life in Sprague-Dawley rat at 10 mg/kg, iv by LC-MS analysis; assay type: ADME, organism-based; set-up: dose 10 mg/kg, route intravenous; conditions: in vivo
# [27] = Clearance in Sprague-Dawley rat at 10 mg/kg, iv by LC-MS analysis; assay type: ADME, organism-based; set-up: dose 10 mg/kg, route intravenous; conditions: in vivo
smiles,measurement,setting,value
CC(=O)NC[C@@H]1OC(=O)N2c3ccc(-c4ccc([N+](=O)[O-])nc4)cc3OC[C@@H]12,MIC,[1],1 µg/mL
same,MIC,[2],2 µg/mL
same,MIC,[3],1 µg/mL
same,MIC,[4],0.5 µg/mL
same,MIC,[5],0.25 µg/mL
same,MIC,[6],0.125 µg/mL
same,MIC,[7],0.5 µg/mL
same,MIC,[8],0.25 µg/mL
same,MIC,[9],2 µg/mL
CC(=O)NC[C@@H]1OC(=O)N2c3ccc(-c4ccc(C(C)=O)nc4)cc3OC[C@@H]12,MIC,[1],1 µg/mL
same,MIC,[2],1 µg/mL
same,MIC,[3],1 µg/mL
same,MIC,[4],0.5 µg/mL
same,MIC,[5],0.25 µg/mL
same,MIC,[6],0.5 µg/mL
same,fold change (FC),[10],8
same,fold change (FC),[11],8
same,MIC,[7],0.5 µg/mL
same,fold change (FC),[12],8
same,ED50,[13],> 20 mg/kg
same,MIC,[8],0.25 µg/mL
same,fold change (FC),[14],8
same,MIC,[9],2 µg/mL
CC(=O)NC[C@@H]1OC(=O)N2c3ccc(-c4ccc(N)nc4)cc3OC[C@@H]12,MIC,[1],2 µg/mL
same,MIC,[2],4 µg/mL
same,MIC,[3],2 µg/mL
same,MIC,[4],0.5 µg/mL
same,MIC,[5],0.5 µg/mL
same,MIC,[6],0.5 µg/mL
same,MIC,[7],0.5 µg/mL
same,MIC,[8],0.5 µg/mL
same,MIC,[9],16 µg/mL
COc1ccc(-c2ccc3c(c2)OC[C@H]2[C@H](CNC(C)=O)OC(=O)N32)cn1,MIC,[1],1 µg/mL
same,MIC,[2],2 µg/mL
same,MIC,[3],2 µg/mL
same,MIC,[4],0.5 µg/mL
same,MIC,[5],0.5 µg/mL
same,MIC,[6],0.25 µg/mL
same,MIC,[7],0.5 µg/mL
same,MIC,[8],0.5 µg/mL
same,MIC,[9],4 µg/mL
CC(=O)NC[C@@H]1OC(=O)N2c3ccc(-c4ccc(-c5nnnn5C)nc4)cc3OC[C@@H]12,MIC,[1],1 µg/mL
same,MIC,[2],2 µg/mL
same,MIC,[3],1 µg/mL
same,MIC,[4],0.5 µg/mL
same,MIC,[5],0.25 µg/mL
same,MIC,[6],0.5 µg/mL
same,MIC,[7],0.25 µg/mL
same,MIC,[8],0.25 µg/mL
same,MIC,[9],4 µg/mL
CC(=O)NC[C@@H]1OC(=O)N2c3ccc(-c4ccc(C5(C#N)CC5)nc4)cc3OC[C@@H]12,MIC,[1],1 µg/mL
same,MIC,[2],1 µg/mL
same,MIC,[3],1 µg/mL
same,MIC,[4],0.5 µg/mL
same,MIC,[5],0.5 µg/mL
same,MIC,[6],0.5 µg/mL
same,MIC,[7],0.5 µg/mL
same,MIC,[8],0.5 µg/mL
same,MIC,[9],8 µg/mL
CC(=O)NC[C@@H]1OC(=O)N2c3ccc(-c4ccc(C5(N)CC5)nc4)cc3OC[C@@H]12,MIC,[1],4 µg/mL
same,MIC,[2],4 µg/mL
same,MIC,[3],4 µg/mL
same,MIC,[4],0.5 µg/mL
same,MIC,[5],0.25 µg/mL
same,MIC,[6],0.25 µg/mL
same,MIC,[7],0.5 µg/mL
same,MIC,[8],0.25 µg/mL
same,MIC,[9],16 µg/mL
CC(=O)NC[C@@H]1OC(=O)N2c3ccc(-c4ccc(C#CCO)nc4)cc3OC[C@@H]12,MIC,[1],1 µg/mL
same,MIC,[2],1 µg/mL
same,MIC,[3],1 µg/mL
same,MIC,[4],0.5 µg/mL
same,MIC,[5],0.25 µg/mL
same,MIC,[6],0.5 µg/mL
same,MIC,[7],0.5 µg/mL
same,MIC,[8],0.25 µg/mL
same,MIC,[9],4 µg/mL
CC(=O)NC[C@@H]1OC(=O)N2c3ccc(-c4ccc(N5CCOC5=O)nc4)cc3OC[C@@H]12,bioavailability,[15],18%
same,ED50,[16],9.5 mg/kg
same,half-life,[17],4.7 h
same,MIC,[1],0.5 µg/mL
same,MIC,[2],1 µg/mL
same,MIC,[3],1 µg/mL
same,fold change (FC),[18],4
same,AUC(0-inf),[19],123 µg·h/mL
same,Tmax,[20],6 h
same,MIC,[4],0.5 µg/mL
same,MIC,[5],0.125 µg/mL
same,MIC,[6],0.25 µg/mL
same,fold change (FC),[10],8
same,fold change (FC),[11],8
same,MIC,[7],0.25 µg/mL
same,fold change (FC),[12],8
same,AUC(0-inf),[21],136 µg·h/mL
same,ED50,[13],11.3 mg/kg
same,fold change (FC),[22],4
same,MIC,[8],0.125 µg/mL
same,fold change (FC),[14],8
same,fold change (FC),[23],4
same,Cmax,[24],9000 ng/mL
same,MIC,[9],2 µg/mL
same,fold change (FC),[25],4
same,half-life,[26],3.7 h
same,clearance,[27],1.28 mL/min/kg
CC(=O)NC[C@@H]1OC(=O)N2c3ccc(-c4cc(C#N)ccn4)cc3OC[C@@H]12,MIC,[4],1 µg/mL
same,MIC,[5],0.25 µg/mL
same,MIC,[6],0.5 µg/mL
same,MIC,[7],0.25 µg/mL
same,MIC,[8],0.5 µg/mL
CC(=O)NC[C@@H]1OC(=O)N2c3ccc(-c4cncc(C(C)=O)c4)cc3OC[C@@H]12,MIC,[4],1 µg/mL
same,MIC,[5],0.5 µg/mL
same,MIC,[6],1 µg/mL
same,MIC,[7],1 µg/mL
same,MIC,[8],1 µg/mL
CC(=O)NC[C@@H]1OC(=O)N2c3ccc(-c4ccc(C(C)=O)cn4)cc3OC[C@@H]12,MIC,[4],4 µg/mL
same,MIC,[5],2 µg/mL
same,MIC,[6],2 µg/mL
same,MIC,[7],2 µg/mL
same,MIC,[8],2 µg/mL
CC(=O)NC[C@@H]1OC(=O)N2c3ccc(-c4cncc(N5CCOC5=O)c4)cc3OC[C@@H]12,MIC,[4],0.5 µg/mL
same,MIC,[5],0.5 µg/mL
same,MIC,[6],1 µg/mL
same,MIC,[7],1 µg/mL
same,MIC,[8],0.5 µg/mL
CC(=O)NC[C@@H]1OC(=O)N2c3ccc(-c4ccc(N5CCOC5=O)cn4)cc3OC[C@@H]12,MIC,[4],2 µg/mL
same,MIC,[5],1 µg/mL
same,MIC,[6],1 µg/mL
same,MIC,[7],1 µg/mL
same,MIC,[8],1 µg/mL
CC(=O)NC[C@@H]1OC(=O)N2c3ccc(-c4ccc(C#N)nc4)cc3OC[C@H]12,MIC,[4],> 16 µg/mL
same,MIC,[5],> 16 µg/mL
same,MIC,[6],> 16 µg/mL
same,MIC,[7],> 16 µg/mL
same,MIC,[8],> 16 µg/mL
CC(=O)NC[C@@H]1OC(=O)N2c3ccc(-c4ccc(-n5ccnc5)nc4)cc3OC[C@@H]12,MIC,[4],1 µg/mL
same,MIC,[5],0.5 µg/mL
same,MIC,[6],0.5 µg/mL
same,MIC,[7],0.5 µg/mL
same,MIC,[8],0.5 µg/mL
CC(=O)NC[C@H]1CN(c2ccc(N3CCOCC3)c(F)c2)C(=O)O1 [LINEZOLID],ED50,[16],14.1 mg/kg
same,MIC,[1],8 µg/mL
same,MIC,[2],16 µg/mL
same,MIC,[5],1 µg/mL
same,MIC,[6],1 µg/mL
same,ED50,[13],9.5 mg/kg
same,MIC,[8],1 µg/mL
same,MIC,[9],> 16 µg/mL

# From ChEMBL document CHEMBL1914384, “Design, synthesis, and structure-activity relationship studies of highly potent novel benzoxazinyl-oxazolidinone antibacterial agents” (J Med Chem, 2011)
